What all share (assay): microbe, parasite or virus in culture
Holding throughout (assay type): cell-based, SARS-COV-2

One assay relates to USA_WA1/2020 (A line). Particulars: Severe acute respiratory syndrome coronavirus 2, Vero 76, read-out: EC90 value (90% effective concentration).
Assay [1] relates to hCoV-19/Japan/TY7-501/2021 (P.1 line). The conditions noted are these: Severe acute respiratory syndrome coronavirus 2, VeroE6/TMPRSS2; 40 hours.
Assay [2] has as its system hCoV-19/England/204820464/2020 (B.1.1.7 line). The conditions noted are these: Severe acute respiratory syndrome coronavirus 2, Vero 76, read-out: EC90 value (90% effective concentration).
Assay [3] relates to hCoV-19/Japan/QK002/2020 (B.1.1.7 line). Particulars: Severe acute respiratory syndrome coronavirus 2, VeroE6/TMPRSS2; 40 hours.
The test system of assay [4] is hCoV-19/Japan/TY8-612/2021 (B.1.351 line). The conditions noted are these: Severe acute respiratory syndrome coronavirus 2, VeroE6/TMPRSS2; 40 hours.
The subject of the next assay is SARS-2 WA1/2020. Particulars: Severe acute respiratory syndrome coronavirus 2, Vero C1008; 72 hours.
Assay [5] relates to hCoV-19/Japan/TY11-330-P1/2021 (B.1.617.1 line). The conditions noted are these: Severe acute respiratory syndrome coronavirus 2, VeroE6/TMPRSS2; 40 hours.
Assay [6] deals with hCoV-19/Japan/TY7-503/2021 (P.1 line). The conditions noted are these: Severe acute respiratory syndrome coronavirus 2, Vero 76, read-out: EC90 value (90% effective concentration).
A further assay relates to SARS-2-9017 (delta). Particulars: Severe acute respiratory syndrome coronavirus 2, Vero C1008; 72 hours.
Assay [7] concerns hCoV-19/Japan/TY2-312-P1/2020 (B.1.1 line).
Assay [8] concerns hCoV-19/Japan/TY11-927-P1/2021 (B.1.617 line). Particulars: Severe acute respiratory syndrome coronavirus 2, VeroE6/TMPRSS2; 40 hours.
Another assay relates to SARS-2 Omicron. The conditions noted are these: Severe acute respiratory syndrome coronavirus 2, Vero C1008; 72 hours.

For the compound `NC(=O)c1nc(F)cnc1O` [Compound A, 6-fluoro-3-hydroxy-2-pyrazinecarboxamide], the EC90 was 68 µM in the assay on USA_WA1/2020 (A line); 306 µM in assay [1]; 83 µM in assay [2]; 359 µM in assay [3]; 223 µM in assay [4]; 125 to 250 µM in the assay with SARS-2 WA1/2020. Further, the EC90 was 491 µM in [5]; 190 µM in assay [6]; 125 to 250 µM with SARS-2-9017 (delta); 466 µM in [7] (40 hours); 302 µM in assay [7] (Severe acute respiratory syndrome coronavirus 2, VeroE6/TMPRSS2, 40 h); 294 µM in assay [8]. The same compound gave an EC90 in the assay with SARS-2 Omicron of 62.5 to 125 µM.

Source of the values: patent US20240245679A1, “AGENT FOR TREATING INFECTIOUS DISEASES AGAINST MUTANT VIRUSES OF NOVEL CORONAVIRUS” (FUJIFILM TOYAMA CHEMICAL CO., LTD., priority 2021, published 2024).
